Results on six compounds are retold here after patent US20150165000A1, “COMPOSITION FOR THERMOSTABILIZATION OF HUMAN SERUM ALBUMIN AND METHOD OF PREPARING THERMALLY STABILIZED HUMAN SERUM ALBUMIN USING THE SAME” (Ewha University - Industry Collaboration Foundation, priority 2012, published 2015).

The target of series [1] is T1, human serum albumin (Homo sapiens, UniProt P02768).
T1 construct: the single supply source of human serum albumin is currently the blood of humans; purchased Sigma-Aldrich A3782
Put plainly: Thermal denaturation of human serum albumin solution: check of precipitation during heating. The format is physicochemical. As to the method:
Thus, the present inventors estimated oleic acid affecting stability depending on the temperature. […] Specifically, while the temperature was maintained at 65° C., 70° C. and 75° C., whether the precipitation was formed due to denaturation of protein was checked at intervals of 30 min, 5 min and 3 min, respectively.
Thermostabilizing effects were evaluated at 70° C. using other C18 fatty acids including stearic acid, linoleic acid, α-linolenic acid and γ-linolenic acid, as well as oleic acid, in the same manner as in Example 6.1. for testing of stability against denaturation due to thermal treatment using oleic acid.
Thermostabilizing effects at 65° C. were evaluated using C16 fatty acids including palmitic acid and palmitoleic acid, as well as oleic acid as the C18 fatty acid, in the same manner as in Examples 6.1. and 6.2. for testing of stability against degeneration due to thermal treatment using various C18 fatty acids including oleic acid. The samples were warmed to 65° C. and observed at an interval of 5 min.
Thermostabilizing effects at 65° C. were evaluated using EPA (eicosapentaenoic acid) and DHA (docosahexanoic acid) as C20 and C22 fatty acids, as well as oleic acid as the C18 fatty acid, in the same manner as in Examples 6.1. to 6.3. for testing of stability against denaturation due to thermal treatment using various C16 and C18 fatty acids.

The target of series [2] is T1, human serum albumin. Put plainly: Structural stability against thermal treatment: secondary structure composition from circular dichroism. The format is physicochemical. Conditions: for structural stability (ratio of α-helix / circular dichroism spectrum), in words / structural stability (ratio of α-helix by circular dichroism), in words: albumin 1 mg/mL. How it is done: The composition of the secondary structure of protein may be estimated using circular dichroism, and thus changes in structure of the thermally denatured protein may be measured.
Measurement of circular dichroism was performed three times under conditions of a data pitch of 0.2 nm, a band width of 1.0 nm, a response time of 4 sec, and a scanning speed of 50 nm/min using a quartz cuvette having a path length of 0.1 cm by use of Jasco J-715 spectropolarimeter. The composition of the secondary structure was assayed from the measured circular dichroism values using SELCON3 program contained in the Dicroprot program.
A general note: Circular dichroism is the unequal absorption of left and right circularly polarised light.

SMILES strings stand for the structures.

T1 sequence (P02768 25-609): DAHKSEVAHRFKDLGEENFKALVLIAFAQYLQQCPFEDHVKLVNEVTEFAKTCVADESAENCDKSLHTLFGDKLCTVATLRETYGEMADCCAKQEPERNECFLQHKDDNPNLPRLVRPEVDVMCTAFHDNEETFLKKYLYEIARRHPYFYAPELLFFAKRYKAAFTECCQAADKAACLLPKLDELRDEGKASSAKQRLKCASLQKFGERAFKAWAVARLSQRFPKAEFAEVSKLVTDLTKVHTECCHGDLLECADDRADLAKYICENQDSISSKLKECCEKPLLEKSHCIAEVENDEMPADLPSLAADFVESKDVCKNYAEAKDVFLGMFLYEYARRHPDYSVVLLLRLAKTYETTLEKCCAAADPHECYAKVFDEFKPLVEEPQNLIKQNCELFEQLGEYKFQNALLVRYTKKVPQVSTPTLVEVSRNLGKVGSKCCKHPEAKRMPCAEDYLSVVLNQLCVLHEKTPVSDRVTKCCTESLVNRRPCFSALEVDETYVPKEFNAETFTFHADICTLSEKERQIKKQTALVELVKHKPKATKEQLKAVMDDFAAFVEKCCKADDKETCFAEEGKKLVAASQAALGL

For the compound `CC/C=C\C/C=C\C/C=C\C/C=C\C/C=C\C/C=C\CCC(=O)O` [DHA, (4Z,7Z,10Z,13Z,16Z,19Z)-docosa-4,7,10,13,16,19-hexaenoic acid], on human serum albumin [1] (65° C., albumin 50 mg/mL, Examples 6.3, 6.4), the “stability against denaturation due to thermal treatment compared to the human serum albumin control” value is recorded as “much higher”.

Take `CCCCC/C=C\C/C=C\CCCCCCCC(=O)O` [linoleic acid]: the “structural stability (ratio of α-helix / circular dichroism spectrum), in words” value at human serum albumin [2] (heated at 70° C. for 10 hr) is reported as “maintained”.

Turning to `CCCCCCCC/C=C\CCCCCCCC(=O)O` [oleic acid], the “structural stability (ratio of α-helix by circular dichroism), in words” value on human serum albumin [2] (heated at 60° C. for 10 hr) is “maintained”; at human serum albumin [2] (heated at 80° C. for 10 hr), “deteriorated”. Also, the “structural stability (ratio of α-helix / circular dichroism spectrum), in words” value on human serum albumin [2] (heated at 70° C. for 10 hr) is reported as “maintained”. In addition, the “structural stability (circular dichroism spectrum), in words” value at human serum albumin [2] (heated at 70° C. for 10 hr, albumin 1 to 40 mg/mL, Example 8) was “stability thereof was maintained”. Besides, the “time for which denaturation was not observed” value on human serum albumin [1] (60° C., albumin 50 mg/mL, fatty acid 1:1) was ≥ 10 h. In addition, the “time for which denaturation did not occur” value on human serum albumin [1] (65° C., albumin 50 mg/mL, fatty acid 1:1) is on record as “about 6 hr”. Besides, the “time after which precipitation began to form” value on human serum albumin [1] (65° C., albumin 50 mg/mL, Example 6.1) came to 330 min; on human serum albumin [1] (70° C., albumin 50 mg/mL, Example 6.1), 30 min. For the same compound, at human serum albumin [1] (70° C.), the “period of time maintained stably compared to the fatty acid-free human serum albumin solution” value is reported as “two times as long or more”. For the same compound, at human serum albumin [1] (75° C., albumin 50 mg/mL, Example 6.1), the “difference between the control and the test group” value is “no difference”.

In the case of `CCCCCCC=CCCCCCCCC(=O)O` [palmitoleic acid, hexadec-9-enoic acid], at human serum albumin [2] (heated at 70° C. for 10 hr), the “structural stability (ratio of α-helix / circular dichroism spectrum), in words” value was “maintained”.

As to `CC/C=C\C/C=C\C/C=C\CCCCCCCC(=O)O` [α-linolenic acid, all-cis-9,12,15-octadecatrienoic acid], the “structural stability (ratio of α-helix / circular dichroism spectrum), in words” value on human serum albumin [2] (heated at 70° C. for 10 hr) is on record as “maintained”.

Take `CCCCC/C=C\C/C=C\C/C=C\CCCCC(=O)O` [γ-linolenic acid]: the “structural stability (ratio of α-helix / circular dichroism spectrum), in words” value at human serum albumin [2] (heated at 70° C. for 10 hr) is “maintained”.
